For 26 compounds, Eff. % and logP results are on record in patent US9375005B2, “5-halogenopyrazole indanyl carboxamides” (BAYER CROPSCIENCE AG, priority 2012, dated 2016).

The test system of one data set is Alternaria brassicae. Nature of the data set: In vivo preventive test on Alternaria brassicae (leaf spot on radish). As to conditions: dose 500 ppm; radish plants sprayed 24 h before contamination; grading 6 days after contamination vs control plants. The method, then: Radish plants (“Pernod Clair” variety), sown in starter cups on a 50/50 peat soil-pozzolana substrate and grown at 17° C., are treated at the cotyledon stage by spraying with the active ingredient prepared as described above. Plants, used as controls, are treated with the mixture of acetone/tween/DMSO/water not containing the active material. After 24 hours, the plants are contaminated by spraying the cotyledons with an aqueous suspension of Alternaria brassicae spores (50 000 spores per ml). The spores are collected from a 15-day-old culture. […] Grading (% of efficacy) is carried out 6 days after the contamination, in comparison with the control plants.

The test system of another data set is Puccinia recondita. Nature of the data set: In vivo preventive test on Puccinia recondita (brown rust on wheat). The following applies: wheat plants sprayed 24 h before contamination, grading 12 days after contamination. The procedure:
Plants, used as controls, are treated with the mixture of acetone/tween/DMSO/water not containing the active material. After 24 hours, the plants are contaminated by spraying the leaves with an aqueous suspension of Puccinia recondita spores (100 000 spores per ml). […] Grading (% of efficacy) is carried out 12 days after the contamination, in comparison with the control plants.

The next data set relates to Pyrenophora teres. Nature of the data set: In vivo preventive test on Pyrenophora teres (net blotch on barley). As to conditions: barley plants sprayed 24 h before contamination, grading 14 days after contamination. The procedure: Barley plants (“Plaisant” variety), sown in starter cups on a 50/50 peat soil-pozzolana substrate and grown at 22° C., are treated at the 1-leaf stage (10 cm height) by spraying with the active ingredient prepared as described above. Plants, used as controls, are treated with the mixture of acetone/tween/DMSO/water not containing the active material. After 24 hours, the plants are contaminated by spraying the leaves with an aqueous suspension of Pyrenophora teres spores (12 000 spores per ml). The spores are collected from a 12-day-old culture. […] Grading (% of efficacy) is carried out 14 days after the contamination, in comparison with the control plants.

A further data set concerns Sphaerotheca fuliginea. Nature of the data set: In vivo preventive test on Sphaerotheca fuliginea (powdery mildew on cucurbits). As to conditions: gherkin plants sprayed 24 h before contamination, grading 12 days after contamination. The procedure:
Gherkin plants (“Vert petit de Paris” variety), sown in starter cups on a 50/50 peat soil-pozzolana substrate and grown at 24° C., are treated at the Z11 cotyledon stage by spraying with the active ingredient prepared as described above. Plants, used as controls, are treated with the mixture of acetone/tween/DMSO/water not containing the active material. After 24 hours, the plants are contaminated by spraying the cotyledons with an aqueous suspension of Sphaerotheca fuliginea spores (100 000 spores per ml). The spores are collected from infected plants. The contaminated to gherkin plants are incubated at about 20° C. and at 70-80% relative humidity. Grading (% of efficacy) is carried out 12 days after the contamination, in comparison with the control plants.

The next data set deals with Uromyces appendiculatus. Nature of the data set: In vivo preventive test on Uromyces appendiculatus (bean rust). The following applies: bean plants sprayed 24 h before contamination, grading 11 days after contamination. The method, then: Bean plants (“Saxa” variety), sown in starter cups on a 50/50 peat soil-pozzolana substrate and grown at 24° C., are treated at the 2-leaf stage (9 cm height) by spraying with the active ingredient prepared as described above. Plants, used as controls, are treated with the mixture of acetone/tween/DMSO/water not containing the active material. After 24 hours, the plants are contaminated by spraying the leaves with an aqueous suspension of Uromyces appendiculatus spores (150 000 spores per ml). […] Grading (% of efficacy) is carried out 11 days after the contamination, in comparison with the control plants.

A short description of data set [1]: Measurement of log P values by HPLC on reversed phase columns (EEC directive 79/831 Annex V.A8). It is filed as physicochemical.
The test system of another data set is Septoria tritici. Nature of the data set: In vivo preventive test on Septoria tritici (leaf spot on wheat). The following applies: dose 500 ppm; wheat plants sprayed 24 h before contamination; grading 24 days after contamination. The method, then:
Wheat plants (“Scipion” variety), sown in starter cups on a 50/50 peat soil-pozzolana substrate and grown at 22° C., are treated at the 1-leaf stage (10 cm height) by spraying with the active ingredient prepared as described above. Plants, used as controls, are treated with the mixture of acetone/tween/DMSO/water not containing the active material. After 24 hours, the plants are contaminated by spraying the leaves with an aqueous suspension of cryopreserved Septoria tritici spores (500 000 spores per ml). […] Grading (% of efficacy) is carried out 24 days after the contamination, in comparison with the control plants.

For `CON=C1c2cccc(NC(=O)c3c(C(F)F)nn(C)c3F)c2CC1(C)C` (mixture of isomers) [Example 61], the Eff. % in the data set with Alternaria brassicae came out at 75%; with Puccinia recondita (dose 500 ppm) it was 86%.
Regarding `CCC1(C)CCc2c(NC(=O)c3c(C(F)F)nn(C)c3Cl)cccc21` (single isomer, unassigned) [Example 53], the Eff. % in the data set with Alternaria brassicae is 79%; with Pyrenophora teres (dose 500 ppm) it was 80%; with Puccinia recondita (dose 500 ppm), 100%; with Sphaerotheca fuliginea (dose 500 ppm), 98%; in the data set with Uromyces appendiculatus (dose 500 ppm), 100%. Moreover, in data set [1] (method marked [a]), the logP is 4.04[a].
Consider `CC(C)C1Cc2c(NC(=O)c3c(C(F)F)nn(C)c3Cl)cccc2C1(C)C` (stereo not drawn) [Example 6], for which the Eff. % was 78% in the data set on Alternaria brassicae, 100% in the data set on Puccinia recondita (dose 500 ppm), 100% in the data set with Sphaerotheca fuliginea (dose 500 ppm) and 100% with Uromyces appendiculatus (dose 500 ppm). Also, the logP in data set [1] (method marked [a]) is 4.95[a].
Regarding `CC1CC(C)(C)c2c(Cl)ccc(NC(=O)c3c(C(F)F)nn(C)c3Cl)c21` (stereo not drawn) [Example 12], the Eff. % with Alternaria brassicae turned out to be 94%; in the data set on Puccinia recondita (dose 500 ppm), 93%; in the data set on Uromyces appendiculatus (dose 500 ppm), 96%. The logP is 4.6[a]; in data set [1] (method marked [a]) and 4.53[b] in data set [1] (method marked [b]).
As for `Cn1nc(C(F)F)c(C(=O)Nc2cccc3c2CCC32CC2)c1Cl` [Example 14], the Eff. % was 97% in the data set on Alternaria brassicae, 100% in the data set on Puccinia recondita (dose 500 ppm) and 100% in the data set with Uromyces appendiculatus (dose 500 ppm). In addition, the logP in data set [1] (method marked [a]) was 3.58[a].
On to `CCCCON=C1CCc2c(NC(=O)c3c(C(F)F)nn(C)c3Cl)cccc21` [Example 22], for which the Eff. % in the data set with Alternaria brassicae is recorded as 86%. Further, the logP in data set [1] (method marked [a]) was 4.24[a].
As to `CCCCON=C1CCc2c(NC(=O)c3c(C(F)F)nn(C)c3F)cccc21` [Example 24], the Eff. % in the data set on Septoria tritici is listed as 80%. Further, in data set [1] (method marked [a]), the logP was 3.96[a].
For the compound `CCON=C1CCc2c(NC(=O)c3c(C(F)F)nn(C)c3Cl)cccc21` [Example 26], the figures for the Eff. % in the data set with Alternaria brassicae, with Puccinia recondita (dose 500 ppm) and in the data set on Uromyces appendiculatus (dose 500 ppm) were 72%, 94% and 100%, respectively. In addition, the logP in data set [1] (method marked [a]) was 3.27[a].
In turn, `CCCON=C1CCc2c(NC(=O)c3c(C(F)F)nn(C)c3F)cccc21` [Example 28] returned an Eff. % in the data set on Alternaria brassicae of 71%. The logP in data set [1] (method marked [a]) is 3.52[a].
Consider `CCC1Cc2cccc(NC(=O)c3c(C(F)F)nn(C)c3Cl)c2C1` (stereo not drawn) [Example 30], for which the Eff. % came out at 83% in the data set with Pyrenophora teres (dose 500 ppm), 100% in the data set on Puccinia recondita (dose 500 ppm), 70% in the data set on Septoria tritici and 100% in the data set with Uromyces appendiculatus (dose 500 ppm). For the same compound, the logP in data set [1] (method marked [a]) was 4.01[a].
Regarding `CC1CCc2cccc(NC(=O)c3c(C(F)F)nn(C)c3Cl)c21` (stereo not drawn) [Example 31], the Eff. % came to 100% in the data set with Puccinia recondita (dose 500 ppm), 80% in the data set with Septoria tritici and 100% in the data set with Uromyces appendiculatus (dose 500 ppm). The logP in data set [1] (method marked [a]) was 3.44[a].
`CC1CC(C)(C)c2c(F)ccc(NC(=O)c3c(C(F)F)nn(C)c3Cl)c21` (stereo not drawn) [Example 37]: the Eff. % is 97% in the data set with Alternaria brassicae, 75% with Pyrenophora teres (dose 500 ppm), 100% in the data set on Sphaerotheca fuliginea (dose 500 ppm) and 100% with Uromyces appendiculatus (dose 500 ppm). Moreover, the logP in data set [1] (method marked [a]) is 4.11[a].
With `CC(C)CC1CCc2c(NC(=O)c3c(C(F)F)nn(C)c3Cl)cccc21` (stereo not drawn) [Example 40], the Eff. % turned out to be 97% with Alternaria brassicae, 80% in the data set on Pyrenophora teres (dose 500 ppm), 100% in the data set on Puccinia recondita (dose 500 ppm) and 100% with Uromyces appendiculatus (dose 500 ppm). In data set [1] (method marked [a]), the logP was 4.87[a].
For `CC(C)CC1CCc2c(NC(=O)c3c(C(F)F)nn(C)c3F)cccc21` (stereo not drawn) [Example 41], the Eff. % in the data set with Alternaria brassicae turned out to be 95%; in the data set on Puccinia recondita (dose 500 ppm) it was 97%; with Uromyces appendiculatus (dose 500 ppm), 100%. Besides, the logP in data set [1] (method marked [a]) is 4.59[a].
Consider `CC(C)C1Cc2cccc(NC(=O)c3c(C(F)F)nn(C)c3Cl)c2C1C` (stereo not drawn) [Example 47], for which the Eff. % came out at 83% with Puccinia recondita (dose 500 ppm), 80% in the data set on Septoria tritici and 86% with Uromyces appendiculatus (dose 500 ppm). Moreover, the logP in data set [1] (method marked [a]) is 4.68[a].
Consider `CC1CC2(CC2)c2cccc(NC(=S)c3c(C(F)F)nn(C)c3Cl)c21` (stereo not drawn) [Example 49], for which the Eff. % in the data set on Pyrenophora teres (dose 500 ppm) came out at 83%; with Puccinia recondita (dose 500 ppm) it was 94%; with Septoria tritici it was 71%; in the data set with Uromyces appendiculatus (dose 500 ppm) it was 100%. Further, the logP in data set [1] (method marked [a]) was 3.85[a].
For `CC(C)C1Cc2cccc(NC(=O)c3c(C(F)F)nn(C)c3Cl)c2C1C` (stereo not drawn) [Example 56], the Eff. % in the data set with Puccinia recondita (dose 500 ppm) was found to be 83%; in the data set with Septoria tritici it was 80%; with Uromyces appendiculatus (dose 500 ppm), 86%. Moreover, the logP in data set [1] (method marked [a]) was 4.68[a].
On to `CC(C)CC1CCc2c(NC(=O)c3c(C(F)F)nn(C)c3Cl)cccc21` (stereo not drawn) [Example 66], for which the Eff. % is on record as 97% in the data set on Alternaria brassicae, 80% in the data set on Pyrenophora teres (dose 500 ppm), 100% with Puccinia recondita (dose 500 ppm) and 100% with Uromyces appendiculatus (dose 500 ppm).
For `CCON=C1CC(C)c2c(NC(=O)c3c(C(F)F)nn(C)c3F)cccc21` (stereo not drawn) [Example 83], the Eff. % in the data set on Alternaria brassicae is 86%; in the data set with Pyrenophora teres (dose 500 ppm) it was 83%; with Puccinia recondita (dose 500 ppm), 88%; in the data set with Uromyces appendiculatus (dose 500 ppm), 95%. Besides, the logP in data set [1] (method marked [a]) is 3.18[a].
Regarding `CC1CC(CC(C)(C)C)c2cccc(NC(=S)c3c(C(F)F)nn(C)c3F)c21` (stereo not drawn) [Example 87], the Eff. % with Alternaria brassicae came to 75%; in the data set on Puccinia recondita (dose 500 ppm), 98%; in the data set with Sphaerotheca fuliginea (dose 500 ppm), 98%; with Uromyces appendiculatus (dose 500 ppm), 100%. For the same compound, in data set [1] (method marked [a]), the logP was 5.08[a].
Regarding `CCCON=C1CC(C)c2c(NC(=O)c3c(C(F)F)nn(C)c3F)cccc21` (stereo not drawn) [Example 91], the Eff. % in the data set on Alternaria brassicae worked out at 86%; in the data set on Pyrenophora teres (dose 500 ppm), 83%; with Puccinia recondita (dose 500 ppm), 94%; in the data set on Uromyces appendiculatus (dose 500 ppm) it was 100%. The logP in data set [1] (method marked [a]) is 3.67[a].
As for `CC(C)C1Cc2c(NC(=S)c3c(C(F)F)nn(C)c3Cl)cccc2C1(C)C` (stereo not drawn) [Example 92], the Eff. % was 70% with Pyrenophora teres (dose 100 ppm), 94% with Puccinia recondita (dose 100 ppm), 100% in the data set with Sphaerotheca fuliginea (dose 100 ppm) and 100% in the data set with Uromyces appendiculatus (dose 100 ppm). The logP in data set [1] (method marked [a]) is 4.9[a].
As to `CC(C)C1Cc2c(NC(=S)c3c(C(F)F)nn(C)c3F)cccc2C1(C)C` (stereo not drawn) [Example 95], the Eff. % in the data set on Pyrenophora teres (dose 100 ppm) worked out at 70%; with Puccinia recondita (dose 100 ppm), 98%; with Sphaerotheca fuliginea (dose 100 ppm), 100%; in the data set on Uromyces appendiculatus (dose 100 ppm), 100%. The logP in data set [1] (method marked [a]) was 4.76[a].
Consider `CC1CC2(CCCCC2)c2cccc(NC(=S)c3c(C(F)F)nn(C)c3F)c21` (stereo not drawn) [Example 104], for which the Eff. % with Puccinia recondita (dose 100 ppm), in the data set with Sphaerotheca fuliginea (dose 100 ppm) and in the data set with Uromyces appendiculatus (dose 100 ppm) was 100% each time. For the same compound, in data set [1] (method marked [a]), the logP was 4.88[a].
Regarding `CCC1Cc2c(NC(=S)c3c(C(F)F)nn(C)c3Cl)cccc2C1(C)C` (stereo not drawn) [Example 105], the Eff. % with Pyrenophora teres (dose 100 ppm) is given as 70%; with Puccinia recondita (dose 100 ppm) it was 100%; with Sphaerotheca fuliginea (dose 100 ppm), 94%; in the data set with Uromyces appendiculatus (dose 100 ppm) it was 100%. Also, the logP in data set [1] (method marked [a]) was 4.58[a].
As to `CCC1Cc2c(NC(=S)c3c(C(F)F)nn(C)c3F)cccc2C1(C)C` (stereo not drawn) [Example 106], the Eff. % in the data set with Pyrenophora teres (dose 100 ppm) is 80%; in the data set with Puccinia recondita (dose 100 ppm), 100%; in the data set with Sphaerotheca fuliginea (dose 100 ppm) it was 89%; with Uromyces appendiculatus (dose 100 ppm), 94%. In addition, in data set [1] (method marked [a]), the logP is 4.46[a].
